In ChEMBL document CHEMBL1201862, “PubChem BioAssay data set” (2004):
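Five concentrations, 48 hours, 96-well plates. GI50 is the concentration that inhibits growth by half.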 The source made the active and inactive calls. No stated cut-off is given here; in the data, active = GI50 up to about 1.1 µM and inactive = higher.

Tests used:
Assay in all cases: growth of human tumour cells (NCI), 48 h
A498 = tested on: A498
A549 = tested on: A549
HT-29 = tested on: HT-29
K562 = tested on: K562
KM12 = tested on: KM12
MOLT-4 = tested on: MOLT-4
NCI-H23 = tested on: NCI-H23
NCI-H460 = tested on: NCI-H460
NCI-H522 = tested on: NCI-H522
RPMI-8226 = tested on: RPMI-8226
RXF 393 = tested on: RXF 393
SF-539 = tested on: SF-539
SNB-75 = tested on: SNB-75
TK-10 = tested on: TK-10
UO-31 = tested on: UO-31
LOX IMVI = tested on: LOX IMVI
HCT-116 = tested on: HCT-116
MDA-N = tested on: MDA-N

| SMILES | GI50 (A498) | GI50 (A549) | GI50 (HT-29) | GI50 (K562) | GI50 (KM12) | GI50 (MOLT-4) | GI50 (NCI-H23) | GI50 (NCI-H460) | GI50 (NCI-H522) | GI50 (RPMI-8226) | GI50 (RXF 393) | GI50 (SF-539) | GI50 (SNB-75) | GI50 (TK-10) | GI50 (UO-31) | GI50 (LOX IMVI) | GI50 (HCT-116) | GI50 (MDA-N) |
| --- | --- | --- | --- | --- | --- | --- | --- | --- | --- | --- | --- | --- | --- | --- | --- | --- | --- | --- |
| O=C1CCCC2COc3ccc(O)c1c32 (stereo not drawn) | > 100 µM (inactive) | > 100 µM (inactive) | > 100 µM (inactive) | > 100 µM (inactive) | > 100 µM (inactive) | > 100 µM (inactive) | > 100 µM (inactive) | > 100 µM (inactive) | > 100 µM (inactive) | > 100 µM (inactive) | > 100 µM (inactive) | > 100 µM (inactive) | > 100 µM (inactive) | > 100 µM (inactive) | > 100 µM (inactive) |  |  |  |
| COc1ccccc1/C=C/C(=O)c1sc(-c2cccnc2)nc1C | > 100 µM (inactive) | > 100 µM (inactive) | > 100 µM (inactive) | > 100 µM (inactive) | 65.2 µM (inactive) | 61.7 µM (inactive) | > 100 µM (inactive) | > 100 µM (inactive) | > 100 µM (inactive) | 26.3 µM (inactive) | 27.9 µM (inactive) | > 100 µM (inactive) | 22.8 µM (inactive) | > 100 µM (inactive) | > 100 µM (inactive) | > 100 µM (inactive) |  |  |
| CCCCCCN(N)C(=O)CC#N | > 100 µM (inactive) | > 100 µM (inactive) | > 100 µM (inactive) | 39.6 µM (inactive) | 23 µM (inactive) | 35.5 µM (inactive) | 65.6 µM (inactive) | > 100 µM (inactive) | 23.9 µM (inactive) | 19.8 µM (inactive) | 16.9 µM (inactive) | > 100 µM (inactive) | > 100 µM (inactive) | > 100 µM (inactive) | > 100 µM (inactive) | 72.1 µM (inactive) | 47.6 µM (inactive) |  |
| C[N+](C)(C)CC(=O)N/N=C(/Cc1nc2ccc([N+](=O)[O-])cc2nc1O)C(=O)Nc1cc(C(F)(F)F)ccc1Cl | > 100 µM (inactive) | > 100 µM (inactive) | > 100 µM (inactive) | > 100 µM (inactive) | > 100 µM (inactive) | > 100 µM (inactive) | > 100 µM (inactive) | > 100 µM (inactive) | 28.4 µM (inactive) | 63.1 µM (inactive) | > 100 µM (inactive) | > 100 µM (inactive) |  | > 100 µM (inactive) | 40.8 µM (inactive) |  | > 100 µM (inactive) |  |
| CO[C@H](c1ccccc1)[C@H](C)N(C)c1ccc2ccccc2c1C1=NC(C)(C)CO1 |  | 15.9 µM (inactive) | 10.7 µM (inactive) | 11.7 µM (inactive) | 17.1 µM (inactive) | 9.02 µM (inactive) | 14.8 µM (inactive) | 16 µM (inactive) | 4.21 µM (inactive) | 15.6 µM (inactive) | 13.8 µM (inactive) | 16.2 µM (inactive) | 15.5 µM (inactive) | 22.9 µM (inactive) | 13.7 µM (inactive) |  | 10.8 µM (inactive) |  |
| N#C/C(=C\c1c(O)cc(O)cc1O)C(N)=O | > 100 µM (inactive) | > 100 µM (inactive) | > 100 µM (inactive) | > 100 µM (inactive) | > 100 µM (inactive) | > 100 µM (inactive) | > 100 µM (inactive) | > 100 µM (inactive) | > 100 µM (inactive) | > 100 µM (inactive) | > 100 µM (inactive) | > 100 µM (inactive) | 36.2 µM (inactive) | > 100 µM (inactive) | > 100 µM (inactive) | > 100 µM (inactive) | > 100 µM (inactive) |  |
| O/N=C1/C(=C/c2ccc(Cl)c(Cl)c2)CCCC1C(NO)c1ccc(Cl)c(Cl)c1 (stereo not drawn) | 14.4 µM (inactive) | 17.2 µM (inactive) | 16.7 µM (inactive) | 21.3 µM (inactive) | 18 µM (inactive) | 12.5 µM (inactive) | 17.3 µM (inactive) | 21.1 µM (inactive) | 10.1 µM (inactive) | 17.1 µM (inactive) | 19.7 µM (inactive) | 18.1 µM (inactive) | 16.6 µM (inactive) | 19.8 µM (inactive) | 18.7 µM (inactive) |  | 16.2 µM (inactive) |  |
| O=C1CCC2(CC1)SCCCS2 | > 100 µM (inactive) | > 100 µM (inactive) | > 100 µM (inactive) | > 100 µM (inactive) | > 100 µM (inactive) |  | > 100 µM (inactive) | > 100 µM (inactive) | > 100 µM (inactive) | > 100 µM (inactive) | > 100 µM (inactive) |  | 61.1 µM (inactive) | > 100 µM (inactive) | > 100 µM (inactive) | > 100 µM (inactive) |  |  |
| O=c1c(-c2cccc3ccccc23)c(-c2cccc3ccccc23)c1=O | 2.45 µM (inactive) | 0.741 µM (active) | 0.35 µM (active) | 0.161 µM (active) | 0.608 µM (active) | 1.59 µM (inactive) | 2.49 µM (inactive) | 0.586 µM (active) | 0.489 µM (active) | 0.736 µM (active) | 4.69 µM (inactive) | 1.38 µM (inactive) | 0.2 µM (active) | 15.1 µM (inactive) | 11.8 µM (inactive) | 1.77 µM (inactive) | 1.85 µM (inactive) |  |
| CC1=C(C(=O)Nc2cc(=O)n(C)c(=O)n2C)C(c2cccc([N+](=O)[O-])c2)C(C(=O)Nc2cc(=O)n(C)c(=O)n2C)=C(C)N1 | 49.5 µM (inactive) | > 100 µM (inactive) | > 100 µM (inactive) | 72.4 µM (inactive) | > 100 µM (inactive) | 42.6 µM (inactive) | > 100 µM (inactive) | 62.7 µM (inactive) | 44.5 µM (inactive) | 62.5 µM (inactive) | > 100 µM (inactive) | 26.7 µM (inactive) | 17.5 µM (inactive) | > 100 µM (inactive) | 56.1 µM (inactive) | > 100 µM (inactive) |  |  |
| O=NN(CCCl)C(=O)N[C@H]1CC[C@H](CC(=O)O)CC1 | > 100 µM (inactive) | 87.3 µM (inactive) | > 100 µM (inactive) | 60.3 µM (inactive) | > 100 µM (inactive) | 11.9 µM (inactive) | > 89.1 µM (inactive) | 45.2 µM (inactive) | 28 µM (inactive) | 33.1 µM (inactive) | > 100 µM (inactive) | 26.1 µM (inactive) | 50.4 µM (inactive) | > 100 µM (inactive) | > 100 µM (inactive) | 22.1 µM (inactive) | > 100 µM (inactive) |  |
| COc1ccc([N+]2=NC(c3ccc([N+](=O)[O-])cc3)=NN(c3ccccc3)C2)cc1.[O-][Cl+3]([O-])([O-])[O-] | > 100 µM (inactive) | > 100 µM (inactive) | 62.7 µM (inactive) | 28.1 µM (inactive) | 90.2 µM (inactive) | 31.8 µM (inactive) | > 100 µM (inactive) | 64.6 µM (inactive) | 3.65 µM (inactive) | 33 µM (inactive) | 67.9 µM (inactive) |  |  | > 100 µM (inactive) | 51.5 µM (inactive) | 68.5 µM (inactive) | 65.5 µM (inactive) |  |
| Cn1ccnc1CCc1c(Cl)cccc1Cl | > 100 µM (inactive) | > 100 µM (inactive) | > 100 µM (inactive) | > 100 µM (inactive) | > 100 µM (inactive) | > 100 µM (inactive) | > 100 µM (inactive) | > 100 µM (inactive) | > 100 µM (inactive) | > 100 µM (inactive) | > 100 µM (inactive) | > 100 µM (inactive) | > 100 µM (inactive) | > 100 µM (inactive) | 71.3 µM (inactive) | > 100 µM (inactive) | > 100 µM (inactive) |  |
| Cc1cc(Cl)cc2c1NC(=O)C2(O)CC(=O)c1ccc(Br)cc1 (stereo not drawn) | 37.8 µM (inactive) | > 100 µM (inactive) | 49.9 µM (inactive) | 21.6 µM (inactive) | 46.9 µM (inactive) | 20.5 µM (inactive) | 43.4 µM (inactive) | 55.7 µM (inactive) | 45.7 µM (inactive) | 35 µM (inactive) | 21.8 µM (inactive) | 48.3 µM (inactive) | 45.5 µM (inactive) | > 73.8 µM (inactive) | > 100 µM (inactive) | 38.5 µM (inactive) | 56.9 µM (inactive) |  |
| CCOC(=O)c1c[nH]c2c(ccc3nn(C)nc32)c1=O | > 100 µM (inactive) | 34 µM (inactive) | > 100 µM (inactive) | 49.7 µM (inactive) | > 100 µM (inactive) | > 100 µM (inactive) | > 100 µM (inactive) | 96.4 µM (inactive) | > 100 µM (inactive) | 25.6 µM (inactive) | 30.4 µM (inactive) |  | > 100 µM (inactive) | > 100 µM (inactive) | > 100 µM (inactive) | 10 µM (inactive) | 24.9 µM (inactive) |  |
| C/C(CC(=O)Nc1ccccc1C)=N/NS(=O)(=O)c1ccc(C)cc1 | > 100 µM (inactive) | > 100 µM (inactive) | > 100 µM (inactive) | > 100 µM (inactive) | > 100 µM (inactive) | > 100 µM (inactive) | > 100 µM (inactive) | > 100 µM (inactive) | > 100 µM (inactive) | > 100 µM (inactive) | > 100 µM (inactive) | > 100 µM (inactive) | > 100 µM (inactive) | > 100 µM (inactive) | > 100 µM (inactive) | > 100 µM (inactive) | > 100 µM (inactive) |  |
| C=C1C(=O)[C@@]23CC[C@@H]4[C@@]5(C)CCC[C@@]4(OC5=O)C2(C)CC[C@]1(OC)C3 (stereo partly drawn) |  | 3.27 µM (inactive) | 0.36 µM (active) | 0.0993 µM (active) | 2.32 µM (inactive) | 0.238 µM (active) | 1.45 µM (inactive) | 1.93 µM (inactive) | 0.406 µM (active) | 0.205 µM (active) |  | 1.57 µM (inactive) | 1.24 µM (inactive) | 1.38 µM (inactive) | 1.79 µM (inactive) | 0.232 µM (active) | 0.423 µM (active) | 0.52 µM (active) |
